US20240083903A1, “ARYL ETHER COMPOUNDS AS TEAD MODULATORS” (Merck Sharp& Dohme LLC, priority 2021, published 2024)

test system: TEAD Reporter-MCF7 cell line; experiment: YAP/TEAD cellular activity assay: inhibition of TEAD-Luc activity in TEAD Reporter-MCF7 cell line; format: cell-based, human; settings: Homo sapiens, MCF7, 24 h, TEAD Reporter-MCF7 cells, 24 hours incubation with compound, luciferase readout
Method in brief: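 MCF7 cells stably carrying a TEAD-responsive firefly luciferase reporter were seeded at 10,000 cells/well, grown 20-24 h, then exposed to compounds for 24 h at 37° C. Luciferase read by ONE-Glo EX luminescence; percent inhibition and EC50 derived.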

Q: `CNS(=O)(=O)c1ccc(Oc2ccc(C(F)(F)F)cc2)c(-c2ccc3c(c2)NC(=O)CO3)c1` [2-22, N-methyl-3-(3-oxo-3,4-dihydro-2H-1,4-benzoxazin-6-yl)-4-[4-(trifluoromethyl)phenoxy]benzene-1-sulfonamide] was tested. Which EC50 did it give?
A: 92.6 nM

Q: With `CNS(=O)(=O)c1ccc(Oc2ccc(C(F)(F)F)cc2)c(-c2cc3c(cc2F)N(C)C(=O)CC3)c1` [2-23, 3-(7-fluoro-1-methyl-2-oxo-1,2,3,4-tetrahydroquinolin-6-yl)-N-methyl-4-[4-(trifluoromethyl)phenoxy]benzene-1-sulfonamide] as the molecule, how does the EC50 read?
A: 3640 nM

Q: With `CNS(=O)(=O)c1ccc(Oc2ccc(C(F)(F)F)cc2)c(-c2ccc3cccnc3c2)c1` [2-24, N-methyl-3-(quinolin-7-yl)-4-[4-(trifluoromethyl)phenoxy]benzene-1-sulfonamide] as the molecule, how does the EC50 read?
A: 273 nM

Q: Which EC50 does the source give for `CNc1ncc2cc(-c3cc(S(=O)(=O)NC)ccc3Oc3ccc(C(F)(F)F)cc3)ccc2n1` [2-25, N-methyl-3-[2-(methylamino)quinazolin-6-yl]-4-[4-(trifluoromethyl)phenoxy]benzene-1-sulfonamide] here?
A: 232 nM

Q: Which EC50 does the source give for `CNS(=O)(=O)c1ccc(Oc2ccc(C(F)(F)F)cc2)c(-c2cccc3c2OCC(=O)N3)c1` [2-26, N-methyl-3-(3-oxo-3,4-dihydro-2H-1,4-benzoxazin-8-yl)-4-[4-(trifluoromethyl)phenoxy]benzene-1-sulfonamide] here?
A: 3180 nM

Q: How did the EC50 turn out when `CNS(=O)(=O)c1ccc(Oc2ccc(C(F)(F)F)cc2)c(-c2ccc3nccnc3c2)c1` [2-27, N-methyl-3-(quinoxalin-6-yl)-4-[4-(trifluoromethyl)phenoxy]benzene-1-sulfonamide] was run?
A: 410 nM

Q: For `CNS(=O)(=O)c1ccc(Oc2ccc(C(F)(F)F)cc2)c(-c2ccc3c(c2)OCC(=O)N3)c1` [2-28, N-methyl-3-(3-oxo-3,4-dihydro-2H-1,4-benzoxazin-7-yl)-4-[4-(trifluoromethyl)phenoxy]benzene-1-sulfonamide], which EC50 is on record?
A: 5230 nM

Q: For `CNS(=O)(=O)c1ccc(Oc2ccc(C(F)(F)F)cc2)c(-c2ccc3nc(OC)ccc3c2)c1` [2-29, 3-(2-methoxyquinolin-6-yl)-N-methyl-4-[4-(trifluoromethyl)phenoxy]benzene-1-sulfonamide], which EC50 is on record?
A: 89.7 nM

Q: `CNS(=O)(=O)c1ccc(Oc2ccc(C(F)(F)F)cc2)c(-c2cnc3cccnc3c2)c1` [2-30, N-methyl-3-(1,5-naphthyridin-3-yl)-4-[4-(trifluoromethyl)phenoxy]benzene-1-sulfonamide] was tested. Which EC50 did it give?
A: 675 nM

Q: With `CNS(=O)(=O)c1ccc(Oc2ccc(C(F)(F)F)cc2)c(-c2ccc3nc(C)ccc3c2)c1` [2-31, N-methyl-3-(2-methylquinolin-6-yl)-4-[4-(trifluoromethyl)phenoxy]benzene-1-sulfonamide] as the molecule, how does the EC50 read?
A: 663 nM

Q: How did the EC50 turn out when `CNS(=O)(=O)c1ccc(Oc2ccc(C(F)(F)F)cc2)c(-c2ccc3c(=O)nc[nH]c3c2)c1` [2-32, N-methyl-3-(4-oxo-1,4-dihydroquinazolin-7-yl)-4-[4-(trifluoromethyl)phenoxy]benzene-1-sulfonamide] was run?
A: 7570 nM

Q: Which EC50 does the source give for `CNS(=O)(=O)c1ccc(Oc2ccc(C(F)F)cc2)c(-c2cnn3c2OCC3)c1` [2-33, 4-[4-(difluoromethyl)phenoxy]-3-(2,3-dihydropyrazolo[5,1-b] [1,3]oxazol-7-yl)-N-methylbenzene-1-sulfonamide] here?
A: 356 nM

Q: Which EC50 does the source give for `CNS(=O)(=O)c1ccc(Oc2ccc(SC(F)(F)F)cc2)c(-c2cnn3c2CCC3)c1` [3-1, 3-(5,6-Dihydro-4H-pyrrolo[1,2-b]pyrazol-3-yl)-N-methyl-4-(4-((trifluoromethyl)thio)phenoxy)benzenesulfonamide] here?
A: 447 nM

Q: How did the EC50 turn out when `CNS(=O)(=O)c1ccc(Oc2cc(C(F)(F)F)cc(C(F)(F)F)c2)c(-c2cnn3c2CCC3)c1` [3-2, 4-[3,5-bis(trifluoromethyl)phenoxy]-3-(5,6-dihydro-4H-pyrrolo[1,2-b]pyrazol-3-yl)-N-methylbenzene-1-sulfonamide] was run?
A: 9140 nM

Q: For `CNS(=O)(=O)c1ccc(Oc2cc(F)cc(C(F)(F)F)c2)c(-c2cnn3c2CCC3)c1` [3-3, 3-(5,6-dihydro-4H-pyrrolo[1,2-b]pyrazol-3-yl)-4-[3-fluoro-5-(trifluoromethyl)phenoxy]-N-methylbenzene-1-sulfonamide], which EC50 is on record?
A: 2080 nM

Q: How did the EC50 turn out when `CNS(=O)(=O)c1ccc(Oc2ccc(OC(F)(F)F)cc2)c(-c2cnn3c2CCC3)c1` [3-4, 3-(5,6-dihydro-4H-pyrrolo[1,2-b]pyrazol-3-yl)-N-methyl-4-[4-(trifluoromethoxy)phenoxy]benzene-1-sulfonamide] was run?
A: 618 nM

Q: Which EC50 does the source give for `CNS(=O)(=O)c1ccc(Oc2cccc(OC(F)(F)F)c2)c(-c2cnn3c2CCC3)c1` [3-5, 3-(5,6-dihydro-4H-pyrrolo[1,2-b]pyrazol-3-yl)-N-methyl-4-[3-(trifluoromethoxy)phenoxy]benzene-1-sulfonamide] here?
A: 3090 nM

Q: How did the EC50 turn out when `CNS(=O)(=O)c1ccc(Oc2ccc(CC(F)(F)F)cc2)c(-c2cnn3c2CCC3)c1` [3-6, 3-(5,6-dihydro-4H-pyrrolo[1,2-b]pyrazol-3-yl)-N-methyl-4-[4-(2,2,2-trifluoroethyl)phenoxy]benzene-1-sulfonamide] was run?
A: 508 nM

Q: With `CNS(=O)(=O)c1ccc(O[C@H]2CC[C@H](C(F)(F)F)CC2)c(-c2cn3c(n2)CCC3)c1` [4-1, 3-(6,7-Dihydro-5H-pyrrolo[1,2-a]imidazol-2-yl)-N-methyl-4-(((1r,4r)-4-(trifluoromethyl)cyclohexyl)oxy)benzenesulfonamide] as the molecule, how does the EC50 read?
A: 52.6 nM

Q: `CNS(=O)(=O)c1ccc(Oc2ccc(C(F)(F)F)nc2)c(-c2cn3c(n2)CCC3)c1` [4-2, 3-(6,7-dihydro-5H-pyrrolo[1,2-a]imidazol-2-yl)-N-methyl-4-((6-(trifluoromethyl)pyridin-3-yl)oxy)benzenesulfonamide] was tested. Which EC50 did it give?
A: 261 nM

Q: Which EC50 does the source give for `CNS(=O)(=O)c1ccc(Oc2ccc(C(C)(C)C)cc2)c(-c2cn3c(n2)CCC3)c1` [4-3, 4-(4-tert-butylphenoxy)-3-(6,7-dihydro-5H-pyrrolo[1,2-a]imidazol-2-yl)-N-methylbenzene-1-sulfonamide] here?
A: 5.7 nM

Q: Which EC50 does the source give for `CNS(=O)(=O)c1ccc(Oc2ccc3c(c2)CCC3)c(-c2cn3c(n2)CCC3)c1` [4-4, 4-[(2,3-dihydro-1H-inden-5-yl)oxy]-3-(6,7-dihydro-5H-pyrrolo[1,2-a]imidazol-2-yl)-N-methylbenzene-1-sulfonamide] here?
A: 32.3 nM

Q: How did the EC50 turn out when `CNS(=O)(=O)c1ccc(Oc2cccc(Cl)c2)c(-c2cn3c(n2)CCC3)c1` [4-5, 4-(3-chlorophenoxy)-3-(6,7-dihydro-5H-pyrrolo[1,2-a]imidazol-2-yl)-N-methylbenzene-1-sulfonamide] was run?
A: 103 nM

Q: With `CNS(=O)(=O)c1ccc(Oc2cccc(F)c2)c(-c2cn3c(n2)CCC3)c1` [4-6, 3-(6,7-dihydro-5H-pyrrolo [1,2-a]imidazol-2-yl)-4-(3-fluorophenoxy)-N-methylbenzene-1-sulfonamide] as the molecule, how does the EC50 read?
A: 146 nM

Q: `CNS(=O)(=O)c1ccc(Oc2ccc(C)cc2)c(-c2cn3c(n2)CCC3)c1` [4-7, 3-(6,7-dihydro-5H-pyrrolo [1,2-a]imidazol-2-yl)-N-methyl-4-(4-methylphenoxy)benzene-1-sulfonamide] was tested. Which EC50 did it give?
A: 23.8 nM

Q: With `CNS(=O)(=O)c1ccc(Oc2ccc(C(C)C)cc2)c(-c2cn3c(n2)CCC3)c1` [4-8, 3-(6,7-dihydro-5H-pyrrolo [1,2-a]imidazol-2-yl)-N-methyl-4-[4-(propan-2-yl)phenoxy]benzene-1-sulfonamide] as the molecule, how does the EC50 read?
A: 5.5 nM

Q: With `CCc1ccc(Oc2ccc(S(=O)(=O)NC)cc2-c2cn3c(n2)CCC3)cc1` [4-9, 3-(6,7-dihydro-5H-pyrrolo [1,2-a]imidazol-2-yl)-4-(4-ethylphenoxy)-N-methylbenzene-1-sulfonamide] as the molecule, how does the EC50 read?
A: 15.1 nM

Q: `CCc1cccc(Oc2ccc(S(=O)(=O)NC)cc2-c2cn3c(n2)CCC3)c1` [4-10, 3-(6,7-dihydro-5H-pyrrolo [1,2-a]imidazol-2-yl)-4-(3-ethylphenoxy)-N-methylbenzene-1-sulfonamide] was tested. Which EC50 did it give?
A: 21.6 nM

Q: `CNS(=O)(=O)c1ccc(Oc2ccc(F)c(F)c2)c(-c2cn3c(n2)CCC3)c1` [4-11, 4-(3,4-difluorophenoxy)-3-(6,7-dihydro-5H-pyrrolo[1,2-a]imidazol-2-yl)-N-methylbenzene-1-sulfonamide] was tested. Which EC50 did it give?
A: 206 nM

Q: With `CNS(=O)(=O)c1ccc(Oc2ccc(Cl)cc2)c(-c2cn3c(n2)CCC3)c1` [4-12, 4-(4-chlorophenoxy)-3-(6,7-dihydro-5H-pyrrolo[1,2-a]imidazol-2-yl)-N-methylbenzene-1-sulfonamide] as the molecule, how does the EC50 read?
A: 14.1 nM

Q: Which EC50 does the source give for `CNS(=O)(=O)c1ccc(Oc2ccc(F)cc2)c(-c2cn3c(n2)CCC3)c1` [4-13, 3-(6,7-dihydro-5H-pyrrolo [1,2-a]imidazol-2-yl)-4-(4-fluorophenoxy)-N-methylbenzene-1-sulfonamide] here?
A: 207 nM

Q: How did the EC50 turn out when `CNS(=O)(=O)c1ccc(Oc2ccc(OC)cc2)c(-c2cn3c(n2)CCC3)c1` [4-14, 3-(6,7-dihydro-5H-pyrrolo[1,2-a]imidazol-2-yl)-4-(4-methoxyphenoxy)-N-methylbenzene-1-sulfonamide] was run?
A: 45.7 nM

Q: For `CNS(=O)(=O)c1ccc(Oc2cccc(C(F)(F)F)c2)c(-c2cn3c(n2)CCC3)c1` [4-15, 3-(6,7-dihydro-5H-pyrrolo[1,2-a]imidazol-2-yl)-N-methyl-4-[3-(trifluoromethyl)phenoxy]benzene-1-sulfonamide], which EC50 is on record?
A: 22.3 nM

Q: For `CNS(=O)(=O)c1ccc(Oc2ccc(Cl)c(C(F)(F)F)c2)c(-c2cn3c(n2)CCC3)c1` [4-16, 4-[4-chloro-3-(trifluoromethyl)phenoxy]-3-(6,7-dihydro-5H-pyrrolo[1,2-a]imidazol-2-yl)-N-methylbenzene-1-sulfonamide], which EC50 is on record?
A: 5.2 nM

Q: With `CNS(=O)(=O)c1ccc(Oc2ccc(SC(F)(F)F)cc2)c(-c2cn3c(n2)CCC3)c1` [4-17, 3-(6,7-dihydro-5H-pyrrolo[1,2-a]imidazol-2-yl)-N-methyl-4-{4-[(trifluoromethyl)sulfanyl]phenoxy}benzene-1-sulfonamide] as the molecule, how does the EC50 read?
A: 14 nM

Q: How did the EC50 turn out when `CNS(=O)(=O)c1ccc(Oc2ccc(S(F)(F)(F)(F)F)cc2)c(-c2cn3c(n2)CCC3)c1` [4-18, 3-(6,7-dihydro-5H-pyrrolo[1,2-a]imidazol-2-yl)-N-methyl-4-[4-(pentafluoro-lambda~6~-sulfanyl)phenoxy]benzene-1-sulfonamide] was run?
A: 15.2 nM
